Test results as given in patent US6277418A, “Corn extract contraceptive” (Baylor College of Medicine, priority 1999, dated 2001).

Key:
[1] = test system: MCF-7 (ER+) human breast cancer cells; assay: MCF-7 cell proliferation (cell number); assay type: cell-based
Excerpt: An aliquot of the GCCB crude extract was fractionated on a Spice C18 Cartridge (a reverse phase column using aliphatic groups attached to a matrix to form a hydrophobic adsorbent. Rainin Instruments Company). Briefly, a GCCB extract in 20% methanol in water was loaded onto a spice cartridge and the pass through (20% methanol) fraction was collected. The column was sequentially eluted with a solution of water comprising 40%, 60%, and 80% methanol in water. The final elution was with 100% methanol. Each fraction, including the pass through fraction, was collected and dried at 50° C. under nitrogen to remove methanol. The eluate was re-dissolved in 100% ethanol. […] Six days following treatment, cell number was determined by hemocytometer counts and results are expressed as cell number in treated wells relative to ethanol controls (100%) as described (B. M. Markaverich et al., J. Steroid Biochem. 29:71-78, 1988; B. M. Markaverich et al., Cancer Res. 50: 1470-1478, 1990; B. M. Markaverich et al., JBC 263: 7203-7210, 1988; B. M. Markaverich et al., Internat. J. Oncol. 4:1291-1300, 1994).
In a further study, the effects of fractionated GCCB extract on the proliferation of the MCF-7 and MDA-231 human breast cancer cells were analyzed. […] Six days following treatment, cell number (% Control) was determined. […]
Cell number was determined 6 days following treatment. […]

[2] = target: T1, estrogen receptor (Rattus norvegicus, UniProt P06211); assay: [3H]estradiol binding to estrogen receptor in rat uterine cytosol; settings: 10 nM [3H]estradiol, extracts rediluted 1:1000, 1-50 μl
T1 sequence (P06211 1-600): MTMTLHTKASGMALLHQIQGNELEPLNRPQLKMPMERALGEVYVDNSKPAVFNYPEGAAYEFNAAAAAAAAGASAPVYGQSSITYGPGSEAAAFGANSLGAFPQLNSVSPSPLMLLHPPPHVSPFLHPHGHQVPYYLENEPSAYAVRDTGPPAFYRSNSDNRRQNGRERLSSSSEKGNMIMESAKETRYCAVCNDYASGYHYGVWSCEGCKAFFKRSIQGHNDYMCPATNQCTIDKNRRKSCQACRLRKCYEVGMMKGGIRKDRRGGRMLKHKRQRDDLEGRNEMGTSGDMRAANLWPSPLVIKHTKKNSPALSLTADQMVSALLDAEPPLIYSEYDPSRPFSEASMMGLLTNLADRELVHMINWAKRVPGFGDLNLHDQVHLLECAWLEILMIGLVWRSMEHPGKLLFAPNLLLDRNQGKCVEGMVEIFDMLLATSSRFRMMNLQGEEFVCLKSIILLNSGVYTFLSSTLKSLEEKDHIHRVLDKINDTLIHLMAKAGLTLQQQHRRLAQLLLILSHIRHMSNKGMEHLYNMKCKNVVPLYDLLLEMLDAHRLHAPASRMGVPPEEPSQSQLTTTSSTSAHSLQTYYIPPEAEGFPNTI

C[C@]12CC[C@@H]3c4ccc(O)cc4C[C@@H](CCCCCCCCC[S+]([O-])CCCC(F)(F)C(F)(F)F)[C@H]3[C@@H]1CC[C@@H]2O (stereo partly drawn) [ICI-182,780]
inhibition of MCF-7 proliferation by antiestrogen alone ([1]; 10 nM, in the absence of estrogen, 6 days): failed to inhibit
inhibition at 0.01 µM ([1]; Homo sapiens, MCF7, 144 h, read-out: block of the estradiol-induced stimulation of MCF-7 cell proliferation): > 50%

O=c1c(-c2ccc(O)cc2)coc2cc(O)ccc12 [daidzein]
competition for [3H]estradiol binding to estrogen receptor [2]: competitively inhibit
